Values of other authors as cited in patent US20250367228A1, “FORMULATIONS FOR BOOSTING NAD+ USING MULTIPLE BIOLOGICAL PATHWAYS CONCURRENTLY TO OVERCOME ENZYMATIC DEGRADATION AND IMPROVE DOWNSTREAM BENEFITS” (PROHEALTH, priority 2023, published 2025).

Assays:
CD38 = biological target: T1, CD38 (Homo sapiens, UniProt P28907)
T1 sequence (P28907 1-300): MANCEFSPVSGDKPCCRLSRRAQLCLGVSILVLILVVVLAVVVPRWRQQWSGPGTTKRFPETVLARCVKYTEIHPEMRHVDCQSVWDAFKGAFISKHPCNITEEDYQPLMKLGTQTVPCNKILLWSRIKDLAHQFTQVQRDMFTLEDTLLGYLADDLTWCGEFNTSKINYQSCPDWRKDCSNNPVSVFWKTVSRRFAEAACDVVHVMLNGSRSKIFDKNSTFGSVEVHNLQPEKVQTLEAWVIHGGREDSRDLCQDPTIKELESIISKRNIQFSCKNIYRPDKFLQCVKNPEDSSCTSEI

[1] = system: NAD+ blood concentrations; conditions: 1000 mg/day of NR, elderly subjects

Structure (SMILES)	inhibition of CD38 (CD38)	increase of NAD+ blood concentrations [1]
O=c1c(O)c(-c2ccc(O)c(O)c2)oc2cc(O)cc(O)c12 [quercetin]	inhibited	
NC(=O)c1ccc[n+]([C@@H]2O[C@H](CO)[C@@H](O)[C@H]2O)c1 [NR, Nicotinamide riboside]		two-fold
O=c1cc(-c2ccc(O)cc2)oc2cc(O)cc(O)c12 [apigenin]	inhibited	
